# Measurements as given in patent US20240115537A1, “COMPOSITION FOR PREVENTING OR TREATING BREAST CANCER COMPRISING COMPOUND DERIVED FROM DENDROPANAX MORBIFERUS” (JEJU NATIONAL UNIVERSITY INDUSTRY-ACADEMIC COOPERATION …, priority 2022, published 2024).
# Assays:
# [1] = test system: CD44high/CD24low population of MDA-MB-231 cells; assay: CD44+/CD24- flow cytometry; assay type: cell-based, human; settings: 50 μM, 24 hours, control 80.8%
# Procedure: MDA-MB-231 cancer cells (1.5×10^6 cells) were cultured in a 6-well plate for 24 hours and treated with DMSO as a control group or dihydroconiferyl ferulate (50 μM) for 24 hours. Thereafter, the cells isolated into single cells were incubated with an anti-human CD44 antibody (FITC-conjugated) and an anti-human CD24 antibody (PE-conjugated) (BD) at 4° C. for 45 minutes. After washing with 1×PBS, CD44^+/CD24^− cells were examined using a flow cytometer Accuri C6 machine (BD San Jose, CA, USA).
# CD44^+/CD24^−, a representative marker of breast cancer stem cells, was associated with stem cell-like activity in breast cancer, and since CD44^+/CD24^− MDA-MB-231 cells show higher tumorigenesis and metastasis than CD44−/CD24^+ MDA-MB-231 cells, MDA-MB-231 cells were treated with dihydroconiferyl ferulate, and then changes in the CD44^high/CD24^low population were measured, and the experimental method was described in Experimental Example 5.
# [2] = test system: MCF-7 cells; assay: Cell proliferation / viability assay (EZ-Cytox); assay type: cell-based; settings: Homo sapiens, MCF7, A of FIG. 6, read-out: IC50 (drug concentration required for 50% growth reduction in a survival curve)
# Procedure: Human breast cancer cell lines, MDA-MB-231 and MCF-7 cells, were purchased from the Korea Cell Line Bank and cultured in an incubator with an atmospheric environment of 5% CO2 and a Dulbecco's Modified Eagle's Medium (DMEM) containing 10% fetal bovine serum (Corning, Glendale, AZ, USA) and 1% penicillin/streptomycin.
# MCF-7 cells (1.5×10^6 cells/plate) and MDA-MB-231 cells (1.0×10^6 cells/plate) were seeded into a 96-well plate for 24 hours and incubated with dihydroconiferyl ferulate (0, 10, 25, 50, 75, 100, 150, and 200 μM). Thereafter, cell viability was examined using the EZ-Cytox Plus Kit (DoGenBio, Seoul, Korea) according to the manufacturer's protocol. OD450 values were measured using a VERSAmax ELISA reader (Molecular Device, San Jose, CA, USA).
# Breast cancer cells MCF-7 and MDA-MB-231 were treated with dihydroconiferyl ferulate, a compound purified from the leaves of Dendropanax morbiferus H.Lev at various concentrations to test an antiproliferative effect, and an experimental method was described in Experimental Example 3.
structure (smiles),measurement,setting,value
COc1cc(/C=C/C(=O)OCCCc2ccc(O)c(OC)c2)ccc1O [dihydroconiferyl ferulate],CD44high/CD24low population,[1],34.0%
same,IC50,[2],112 µM
